Common to all, as to type: cell-based
In experiment [1] the test system is MDA-MB-231. Put plainly: MTT cytotoxic activity against breast MDA-MB-231 cancer cell line. Conditions: Homo sapiens, MDA-MB-231; MTT assay, 24 h treatment. An excerpt: (§1) All the synthesised compounds were screened for their cytotoxic activity against breast MDA-MB-231 cancer cell line and compounds 6 and 12 against breast MCF-10A cell line taking CA-4 as a positive control for the analysis. The in vitro cytotoxicity results of the prepared compounds were systematised in Table 1. […] Structurally, the prepared molecules contain three structural variations; including rotatable hydrazide derivatives, the core exchange with imidazolone ring, and the ring expansion with triazinone motif. […] It is noticed that directly attached benzene ring to triazinone scaffold (compound 6) or bioisosteric group (thiazolyl ester) as in compound 12, may contribute to the astonishing cytotoxicity against breast MDA-MB-231 cancer cells.
To measure the cytotoxic activity of the synthesised derivatives 2a–13e in breast cancer (MDA-MB-231) cell line. MTT assay method was applied to assess cell viability assay. All experimental steps were conducted as reported earlier.
(§2) Part I: Biological Studies
(§3) 4.3. Biological evaluation
(§4) 4.3.1. Cytotoxic activity evaluation
(§5) The cytotoxic actvity of the synthesized derivatives 2a-13e was measured in MDA-MB-231 breast cancer cell line and derivatives 6 and 12 in MCF-10A […].
(§6) Cell viability assay was assessed using MTT assay method. Cells at density of 1 x 104 were seeded in a 96-well plate at 37 °C for 24 h under 5% CO2. After incubation, the cells were treated with different concentrations of the test schiff bases 2a-13e and incubated for 24 h, then 20 µl of MTT solution at 5 mg/mL was applied and incubated for 4 h at 37 °C.
Dimethyl sulphoxide (DMSO) in volume of 100 µl was added to each well to dissolve the purple formazan that had formed. The color intensity of the formazan product, which represents the growth condition of the cells, is quantified by using an ELISA plate reader (EXL 800, USA) at 570 nm absorbance. The experimental conditions were carried out with at least three replicates, and the experiments were repeated at least three times. […]
On the technique in general: Formazan colour is commonly taken as a measure of viable cells.

Experiment [2] deals with MCF-10A. Briefly: MTT cytotoxic activity against breast MCF-10A cell line. Conditions: Homo sapiens, MCF-10A; MTT assay, 24 h treatment.
Source text: as §1, §2, §3, §4, §5, §6
Dimethyl sulphoxide (DMSO) in volume of 100 µl was added to each well to dissolve the purple formazan that had formed. The color intensity of the formazan product, which represents the growth condition of the cells, is quantified by using an ELISA plate reader (EXL 800, USA) at 570 nm absorbance. […]
(§7) Compounds 6, 12 and CA-4 were evaluated for their tubulin inhibitory activity according to manufacturer’s instructions using # abcam Human Beta-tubulin simplestep ELISA Kit ab245722. MDA-MB-231 cells were trypsinized, counted and seeded at the 2 × 105 into 96-well micro titer plates. […]
(§8) (O.D.) was measured at 450±10 nm using microplate reader (Spectromax Plus 96 well plate […]

For experiment [3], the system named is β-tubulin. Put plainly: β-tubulin polymerisation inhibition assay (Human Beta-tubulin ELISA kit) on MDA-MB-231 cells. The following applies: MDA-MB-231 cell line, each compound at its IC50 concentration. The procedure: Trimethoxy phenyl fragment-containing natural stilbenoid-derived molecules, such as Colchicine and CA-4 bind to β-tubulin subunit at the colchicine binding site resulting in inhibition of microtubule assembly and suppression of its formation. […] From the obtained results it can be concluded that the antiproliferative activity of the synthesised triazinone-linked CA-4 derivatives may be derived from the inhibition of microtubule assembly.
Triazinone derivatives 6 and 12 were assessed for their tubulin inhibitory activity according to manufacturer’s instructions using # abcam Human Beta-tubulin simple step ELISA Kit ab245722.
as §2, §3, §4, §5, §6
Dimethyl sulphoxide (DMSO) in volume of 100 µl was added to each well to dissolve the purple formazan that had formed. The color intensity of the formazan product, which represents the growth condition of the cells, is quantified by using an ELISA plate reader (EXL 800, USA) at 570 nm absorbance. The experimental conditions were carried out with at least three replicates, and the experiments were repeated at least three times.
4.3.2. Tubulin inhibitions Assay
as §7, §8
For orientation: An ELISA detects its analyte on a solid surface through an enzyme-linked reagent.

For orientation: IC50 means the concentration needed to halve the response being measured. Read a high IC50 as weaker potency in that assay.

Take `COc1ccc(/C=C\c2cc(OC)c(OC)c(OC)c2)cc1O` [CA-4, Combretastatin-A4, reference compound]: the IC50 in experiment [1] worked out at 0.55 ± 0.09 µM; in experiment [2], 8.91 ± 0.71 µM. In addition, the “% Inhibition of β-tubulin polymerisation” value in experiment [3] is 87.05 ± 0.08%.

The record behind these values is publication PMC9518609, “Design and synthesis of new trimethoxylphenyl-linked combretastatin analogues loaded on diamond nanoparticles as a panel for ameliorated solubility and antiproliferative activity” (Journal of Enzyme Inhibition and Medicinal Chemistry, 2022).
